The record followed here is patent US8008303B2, “Biphenyl derivatives and their use in treating hepatitis C” (AstraZeneca AB, priority 2005, dated 2011).

The test system of data set [1] is HCV replicon cells Huh 9B. The data set can be described thus: HCV replicon assay (luciferase readout). The format is cell-based. The following applies: Hepatitis C virus, 72 h, concentration reducing replicon level (luciferase activity) by 50% vs untreated cell control; 72 h incubation. The procedure, abridged: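 Compounds, made up at twice final strength (final DMSO 1%), were added to subgenomic replicon cells one day after plating. Incubation then ran 72 h at 37 °C, 5% CO2, without G418. Replication was quantified as firefly luciferase luminescence in lysed cells, with cytotoxicity assessed on a duplicate clear plate.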
In general terms: Replicon systems follow genome replication, usually without infectious particles.

The test system of data set [2] is HCV replicon cells Huh 9B. The format is cell-based. The following applies: concentration reducing total cell area by 50% relative to DMSO controls; methylene blue, absorbance 620 nm; 72 h incubation.

Bounds are passed on as bounds.

In the case of `Cc1ccc(NC(=O)c2cccs2)cc1-c1ccc(C(=O)Nc2ccc(CN3CCS(=O)(=O)CC3)cc2)cc1` [Example 155, Thiophene-2-carboxylic acid {4′-[4-(1,1-dioxo-1lambda*6*-thiomorpholin-4-ylmethyl)-phenylcarbamoyl]-6-methyl-biphenyl-3-yl}-amide], the IC50 (as a rule, the midpoint of a concentration-inhibition curve) in data set [1] was under 1 µM. The TD50 result in data set [2] is recorded as “* (* < 50 μM)”.

Consider `Cc1ccc(NC(=O)C(C)(C)C)cc1-c1ccc(C(=O)Nc2ccc(CN3CCS(=O)(=O)CC3)cc2)cc1` [Example 184, 5′-(2,2-Dimethyl-propionylamino)-2′-methyl-biphenyl-4-carboxylic acid [4-(1,1-dioxo-1lambda*6*-thiomorpholin-4-ylmethyl)-phenyl]-amide], for which the IC50 in data set [1] was under 1 µM. Besides, the TD50 result in data set [2] is “* (* < 50 μM)”.

Consider `O=C(Nc1ccc(CN2CCS(=O)(=O)CC2)cc1)c1ccc(-c2cc(NC(=O)C3CCCCC3)ccc2OC(F)(F)F)cc1` [Example 192, 5′-(Cyclohexanecarbonyl-amino)-2′-trifluoromethoxy-biphenyl-4-carboxylic acid [4-(1,1-dioxo-1lambda*6*-thiomorpholin-4-ylmethyl)-phenyl]-amide], for which the IC50 in data set [1] is under 1 µM. In addition, the TD50 entry in data set [2] is “* (* < 50 μM)”.

Consider `Cc1ccc(C(=O)Nc2ccc(N3CCOCC3)cc2)cc1-c1ccc(C(=O)NCc2cccc(CNC(=O)OC(C)(C)C)c2)cc1` [Example 47, [3-({[2′-Methyl-5′-(4-morpholin-4-yl-phenylcarbamoyl)-biphenyl-4-carbonyl]-amino}-methyl)-benzyl]-carbamic acid tert-butyl ester], for which, in data set [1], the IC50 is over 5 µM. For the same molecule, the TD50 entry in data set [2] is on record as “** (** > 50 μM)”.

`Cc1ccc(C(=O)Nc2ccc(N3CCOCC3)cc2)cc1-c1ccc(CN[C@@H](CO)C(=O)O)cc1` [Example 99, (S)-3-Hydroxy-2-{[2′-methyl-5′-(4-morpholin-4-yl-phenylcarbamoyl)-biphenyl-4-ylmethyl]-amino}-propionic acid] showed an IC50 in data set [1] of 1 to 5 µM. Also, in data set [2], the TD50 result is “** (** > 50 μM)”.
